From article PMC5986797, “Laminin heparin-binding peptides bind to several growth factors and enhance diabetic wound healing” (Nature Communications, 2018)
Entries after “also recorded” stand apart in the source; their conditions may differ.

Columns and labels:
[1] = system: recombinant human syndecan-1, syndecan-2, syndecan-3, and syndecan-4; assay: ELISA: syndecan binding to laminin peptides; set-up: key to Interaction with Syndecan: ++ indicates high affinities; + indicates medium/low affinities; settings: for binding to syndecans 1–4 (ELISA): 10 µg/mL laminin peptide coated (legend; method 1 μg/mL), 1 μg/mL histidine-tagged syndecan, vs BSA-coated wells, n = 8; for Interaction with Syndecan: summary table
Method: ELISA tests were performed as described above. […] A concentration of 1 μg/mL of BSA served as non-binding protein control. After blocking with 2% BSA PBS-T solution, 1 μg/mL of the recombinant human syndecan-1, syndecan-2, syndecan-3, and syndecan-4 (all syndecan proteins are histidine-tagged; SinoBiological) were added. Bound GF was detected with anti-histidine tag antibody (BioLegend, Catalog No. 562504, 1:1000 dilution).

[2] = ELISA: biotinylated heparin binding to laminin peptides; set-up: key to Interaction with Heparin: ++ indicates high affinities; + indicates medium/low affinities; settings: for binding to heparin (ELISA): 10 µg/mL laminin peptide coated (legend; method 1 μg/mL), 10 µg/mL biotinylated heparin, vs BSA-coated wells, n = 4; for Interaction with Heparin: summary table
Method: (§1) ELISA tests were performed as described above. In brief, […] recombinant protein, laminin alpha 4 LG domain recombinant protein (R&D Systems), laminin alpha 5 LG domain recombinant protein (LD BioPharma), or laminin peptide (sequences are described in Supplementary Table 1, chemically synthesized by Genscript) in PBS for 2 h at 37 °C. A concentration of 1 μg/mL of BSA served as non-binding protein control. After blocking with 2% BSA PBS-0.05% Tween 20 (PBS-T) solution, 1 μg/mL of the recombinant human proteins (VEGF-A121, VEGF-A165, PlGF-1, PlGF-2, PDGF-BB, or FGF-2) or 10 μg/mL of biotinylated heparin (Sigma-Aldrich) were added. Bound GF was detected with biotinylated antibodies for human VEGF-A, PlGF, PDGF-BB (R&D Systems, Catalog No. DY220, 1:180 dilution), or FGF-2 (R&D Systems). The antibodies were detected by streptavidin-HRP (R&D Systems).

GF [3] = assay: ELISA: GF binding to laminin peptides, stated for the tested GFs together; set-up: species or system human; settings: 10 µg/mL laminin peptide coated, 1 μg/mL GF, n = 4
PDGF-BB [4] = assay: ELISA: PDGF-BB binding to laminin LG domain / laminin peptide; set-up: species or system human; settings: 10 µg/mL laminin peptide coated (legend; method 1 μg/mL); 1 μg/mL GF; vs BSA-coated wells; n = 4
Method: (§2) ELISA tests were performed as described above. In brief, ELISA plates were coated with 1 μg/mL of laminin alpha 3 LG domain recombinant protein, laminin alpha 4 LG domain recombinant protein (R&D Systems), laminin alpha 5 LG domain recombinant protein (LD BioPharma), or laminin peptide (sequences are described in Supplementary Table 1, chemically synthesized by Genscript) in PBS for 2 h at 37 °C. A concentration of 1 μg/mL of BSA served as non-binding protein control. After blocking with 2% BSA PBS-0.05% Tween 20 (PBS-T) solution, 1 μg/mL of the recombinant human proteins (VEGF-A121, VEGF-A165, PlGF-1, PlGF-2, PDGF-BB, or FGF-2) or 10 μg/mL of biotinylated heparin (Sigma-Aldrich) were added. Bound GF was detected with biotinylated antibodies for human VEGF-A, PlGF, PDGF-BB (R&D Systems, Catalog No. DY220, 1:180 dilution), or FGF-2 (R&D Systems). The antibodies were detected by streptavidin-HRP (R&D Systems).

HUVEC cells = assay: Migration assay (transwell); type: cell-based, human; settings: 0.1 μM peptide, in the presence and absence of 30 ng/mL VEGF-A165; 6 h; n = 4
Method: A QCM 24-Well Colorimetric Cell Migration Assay Kit was used to perform migration assay. Both sides of inserts were coated with 0.1 μM of bovine collagen I (C4243, Sigma-Aldrich) for 1 h at 37 °C. Then, the inserts were washed with water, dried in a laminar flow cabinet, and disposed on 24-well cell culture plate covers. Solutions containing 30 ng/mL of VEGF-A165 preincubated with or without 0.1 μM of LAMA3_3043–3067 peptide in a medium (MCDB-131, 0.05% BSA) were added to the bottom side of the transwell (500 μL/well). Directly thereafter, HUVEC cells (Lonza) in a medium containing 0.05% BSA (300 μL/transwell, 4 × 10^4 cells/transwell) were added to the transwell upper parts. After 6 h, migrated cells were stained and absorbance at 560 nm was measured according to the manufacturer’s instructions.

PlGF-2 [5] = assay: ELISA: PlGF-2 binding to laminin LG domain / laminin peptide; set-up: species or system human; settings: 10 µg/mL laminin peptide coated (legend; method 1 μg/mL); 1 μg/mL GF; vs BSA-coated wells; n = 4
Method: as §2

GF [6] = assay: ELISA: GF binding to laminin peptides, stated for the tested GFs together; set-up: species or system human; key: ++ indicates high affinities; + indicates medium/low affinities; settings: summary table
Method: as §2

VEGF-A165 = assay: ELISA: VEGF-A165 binding to laminin LG domain / laminin peptide; set-up: species or system human; settings: 10 µg/mL laminin peptide coated (legend; method 1 μg/mL); 1 μg/mL GF; vs BSA-coated wells; n = 4
Method: as §1

human lung fibroblasts = assay: Cell adhesion assay, fibroblasts; type: cell-based; set-up: key to Cell adhesion Fibroblast: ++ indicates high affinities; + indicates medium/low affinities; settings: for Cell adhesion Fibroblast: summary table; for fibroblast attachment on peptide-coated surfaces: without EDTA, 1 μg/mL peptide coated, 3000 cells/well, 30 min, 37 °C, FGM-2, 1% FBS, CyQUANT, vs BSA, n = 10
Method: (§3) A total of 96-well plates (non-tissue culture treated, Greiner Bio-One) were pre-coated with 1 μg/mL with laminin HBD peptides in PBS for 2 h at 37 °C, followed by blocking with 2% BSA PBS for 1 h at RT. Cell adhesion assays were performed using human lung fibroblasts (Lonza) in FGM-2 medium (Lonza) or human umbilical vein endothelial cells (HUVEC; Lonza) in EGM-2 medium (Lonza) supplemented with 1% fetal bovine serum (FBS) and 100 µg/mL VEGF-A165, with or without 5 mM EDTA (Sigma-Aldrich). Cells were plated at 3000 cells/well on laminin peptide pre-coated plates and incubated for 30 min at 37 °C, 5% CO2. Then, the medium was removed, and wells were quickly washed three times with PBS. Cell numbers were quantified using a CyQUANT assay, according to the manufacturer’s instructions (Invitrogen). All cell lines were checked for mycoplasma contamination and used in passages from 5 to 8.

FGF-2 = assay: ELISA: FGF-2 binding to laminin LG domain / laminin peptide; set-up: species or system human; settings: 10 µg/mL laminin peptide coated (legend; method 1 μg/mL); 1 μg/mL GF; vs BSA-coated wells; n = 4
Method: as §2

[7] = system: human umbilical vein endothelial cells (HUVEC); assay: Cell adhesion assay, HUVEC; type: cell-based; set-up: key to Cell adhesion HUVEC: ++ indicates high affinities; + indicates medium/low affinities
Method: as §3, with “Cell adhesion assays were performed using human lung fibroblasts (Lonza) in FGM-2 medium (Lonza) or human umbilical vein endothelial cells (HUVEC; Lonza) in EGM-2 medium (Lonza) supplemented with 1% fetal bovine serum (FBS) and 100 µg/mL VEGF-A165, with or without 5 mM EDTA (Sigma-Aldrich).” left out

PDGF-BB [8] = assay: SPR: laminin-521 against PDGF-BB; type: binding, human; settings: laminin-521 immobilized (~2000 RU) on C1 chip, GF flown over, Langmuir fit
Method: (§4) SPR measurements were made with a Biacore 3000 SPR system (GE Healthcare). Laminin-521 or laminin LAMA3_2928–3150 was immobilized via amine coupling on a C1 chip (GE Healthcare) for ~2000 or ~1000 resonance units (RU), respectively, according to the manufacturer’s instructions. VEGF-A165, PDGF-BB, or PlGF-2 was flown at increasing concentrations in the running buffer (0.01 M HEPES, pH 7.4, 0.15 M NaCl, and 0.005% v/v surfactant P20) at 20 μL/min. The sensor chip was regenerated with 50 mM NaOH for every cycle. Specific bindings of GFs to laminin were calculated by comparison to a non-functionalized channel used as a reference. Experimental results were fitted with Langmuir binding kinetics using BIAevaluation software (GE Healthcare).

PlGF-2 [9] = assay: SPR: laminin-521 against PlGF-2; type: binding, human; settings: laminin-521 immobilized (~2000 RU) on C1 chip, GF flown over, Langmuir fit
Method: as §4

[10] = system: GF (VEGF-A165, PlGF-2, FGF-2) binding to laminin; assay: Inhibition of laminin–GF binding by heparin (ELISA); set-up: species or system human; settings: 10 µM heparin; 10 µg/mL laminin coated; 1 μg/mL VEGF-A165, PlGF-2 or FGF-2; n = 4
Method: ELISA plates (med-binding) were coated with 10 μg/mL laminin isoforms (–111, –211, –221, –411, –421, –511, and –521) in PBS for 2 h at 37 °C. Then, wells were blocked with 2% BSA-containing PBS-T and further incubated with 1 μg/mL each of VEGF-A165, PlGF-2, or FGF-2 for 60 min at RT with 10 μM heparin. Next, the wells were incubated with biotinylated anti-VEGF (R&D Systems, Catalog No. DY293B, 1:60 dilution), anti-PlGF (R&D Systems, Catalog No. DY264, 1:180 dilution), or anti-FGF-2 (R&D Systems, Catalog No. DY233, 1:60 dilution) antibodies. The antibodies were detected by streptavidin-HRP (R&D Systems).

Substance	binding to syndecans 1–4 (ELISA) [1]	Interaction with Syndecan [1]	binding to heparin (ELISA) [2]	binding to PDGF-BB (ELISA), peptides (PDGF-BB [4])	binding to PlGF-2 (ELISA), peptides (PlGF-2 [5])	Interaction with GF (GF [6])	binding to VEGF-A165 (ELISA), peptides (VEGF-A165)	binding to FGF-2 (ELISA), peptides (FGF-2)	Interaction with Heparin [2]	binding to the tested GFs (ELISA) (GF [3])	Cell adhesion Fibroblast (human lung fibroblasts)	fibroblast attachment on peptide-coated surfaces (human lung fibroblasts)	further results
ARKASRRSRQPARH [LAMA5_3312–3325, chemically synthesized human laminin LAMA5 linker peptide, 14 aa, subdomain of LAMA5_3300–3330]	weak binding	+	did not bind to heparin							did not show particular binding to any tested GF			
RLVFALGTDGKKLRIKSKEKCNDGK [LAMA3_3043–3067, chemically synthesized human laminin LAMA3 LG4 HBD peptide, 25 aa]	significant binding	++	bound to heparin	bound	bound	++	bound	bound	++		++	enhancement of fibroblast attachment	degree of migration of HUVEC cells, peptide (HUVEC cells): did not increase the degree of cell migration; HUVEC attachment in the presence of EDTA ([7]; 5 mM EDTA, 1 μg/mL peptide coated, 3000 cells/well, 30 min, 37 °C, CyQUANT, n = 10): even in the presence of EDTA; Cell adhesion HUVEC ([7]; summary table): ++; HUVEC attachment on peptide-coated surfaces ([7]; without EDTA, 1 μg/mL peptide coated, 3000 cells/well, 30 min, 37 °C, 100 ng/mL VEGF-A165, 1% FBS, CyQUANT, n = 10): promoted HUVEC attachment
TLPDVGLELEVR [LAMA5_3539–3550, chemically synthesized human laminin LAMA5 LG5 peptide, 12 aa]	did not show binding		did not show binding to heparin; also recorded: do not show heparin binding			+				significantly bound to all tested GFs			
laminin-521: recombinant human full-length laminin isoform (BioLamina)													Kd (PDGF-BB [8]): 24.2 nM; Kd (PlGF-2 [9]): 12.9 nM
RQRSRPGRWHKVSVRWEKNR [LAMA5_3417–3436, chemically synthesized human laminin LAMA5 LG4 peptide, 20 aa]	significant binding	++	bound to heparin	bound	bound	++	bound	bound	++		+	enhancement of fibroblast attachment	
heparin													inhibition of GF binding to laminin by excess heparin [10]: inhibited
